Experimental findings from BindingDB's records for doi:10.1016/j.ejmech.2012.11.007 (Chungnam National University, 2013) are described below.

The nature of this assay: Inhibition of IL-5 in mouse pro-B Y16 cells after 48 hrs by WST1 assay. Background: Tetrazolium dyes change colour on reduction, which living cells bring about.
With `CC(C)(C)c1ccc(C(O)/C=C/c2coc3cccc(OCC4CCCCC4)c3c2=O)cc1` (centres undefined), the IC50 (in general, the concentration at which inhibition is half-maximal) was > 30 µM.

As for `O=C(/C=C/c1coc2cccc(OCC3CCCCC3)c2c1=O)c1ccc([N+](=O)[O-])cc1`, the IC50 was > 30 µM. Then `Cc1ccc(C(O)/C=C/c2coc3cccc(OCC4CCCCC4)c3c2=O)cc1` (centres undefined), with 15 µM; and `N#Cc1ccc(C(O)/C=C/c2coc3cccc(OCC4CCCCC4)c3c2=O)cc1` (centres undefined), with 6.7 µM. Turning to `O=C(/C=C/c1coc2cccc(OCC3CCCCC3)c2c1=O)c1ccc(Cl)cc1`, the IC50 was > 30 µM.

`O=c1c(/C=C/C(O)c2ccc(C(F)(F)F)cc2)coc2cccc(OCC3CCCCC3)c12` (centres undefined): half-maximal inhibition (IC50) was put at 13.2 µM. `CC(C)COc1cccc2occ(/C=C/C(O)c3ccc(O)cc3)c(=O)c12` (centres undefined): the IC50 was > 30 µM. In turn, `COc1ccc(C(O)/C=C/c2coc3cccc(OCC4CCCCC4)c3c2=O)cc1` (centres undefined) gave an IC50 of 16 µM. The figure for `O=c1c(/C=C/C(O)c2ccc(F)cc2)coc2cccc(OCC3CCCCC3)c12` (centres undefined) is 6.4 µM; for `CC(C)(C)c1ccc(C(=O)/C=C/c2coc3cccc(OCC4CCCCC4)c3c2=O)cc1` it is 18.1 µM; for `O=c1c(/C=C/C(O)c2ccc(O)cc2)coc2cccc(OCC3CCCCC3)c12` (centres undefined) it is 12.5 µM.

With `O=C(/C=C/c1coc2cccc(OCC3CCCCC3)c2c1=O)c1ccc(F)cc1`, the IC50 was > 30 µM. `O=c1c(/C=C/C(O)c2ccc(Cl)cc2)coc2cccc(OCC3CCCCC3)c12` (centres undefined) gave an IC50 of 7 µM. As to `COc1ccc(C(=O)/C=C/c2coc3cccc(OCC4CCCCC4)c3c2=O)cc1`, the IC50 was > 30 µM. Regarding `O=C(/C=C/c1coc2cccc(OCC3CCCCC3)c2c1=O)c1ccccc1`, the IC50 is > 30 µM. Regarding `N#Cc1ccc(C(=O)/C=C/c2coc3cccc(OCC4CCCCC4)c3c2=O)cc1`, the IC50 is > 30 µM.

In the case of `COc1cccc2occ(/C=C/C(=O)c3ccc(O)cc3)c(=O)c12`, the IC50 is > 30 µM. On to `O=C(/C=C/c1coc2cccc(OCC3CCCCC3)c2c1=O)c1ccc(C(F)(F)F)cc1`, for which the concentration for half-maximal inhibition (IC50) was > 30 µM.

`CC(C)COc1cccc2occ(/C=C/C(=O)c3ccc(O)cc3)c(=O)c12` had an IC50 of 19.1 µM.

The compound `Cc1ccc(C(=O)/C=C/c2coc3cccc(OCC4CCCCC4)c3c2=O)cc1` had an IC50 of 25.1 µM. This IC50 and that of the compound before are within 1.5-fold of each other. The compound `O=C(/C=C/c1coc2cccc(OCC3CCCCC3)c2c1=O)c1ccc(O)cc1` had an IC50 of 16.2 µM. Against the preceding compound, the IC50 is about 1.5-fold lower.

`O=c1c(/C=C/C(O)c2ccc([N+](=O)[O-])cc2)coc2cccc(OCC3CCCCC3)c12` (centres undefined): half-maximal inhibition (IC50) was put at 7 µM. Turning to `COc1cccc2occ(/C=C/C(O)c3ccc(O)cc3)c(=O)c12` (centres undefined), the IC50 is > 30 µM.

As to `O=c1c(/C=C/C(O)c2ccccc2)coc2cccc(OCC3CCCCC3)c12` (centres undefined), the IC50 is 15 µM. That is a double-digit micromolar value.
